Results published in patent US7763446B2, “Chimeric DNA-binding proteins” (Massachusetts Institute of Technology, priority 1994, dated 2010).

Tests used:
[1] = system: ZFHD1-FKBPx3 with FKBPx3-VP16 or FKBPx3-p65, pZHWTx8SVSEAP reporter; assay: FK1012-dependent SEAP transcriptional activation in 293 cells; format: cell-based; details: 24 hour incubation
Procedure: 293 cells were grown in D-MEM (Gibco BRL) supplemented with 10% Bovine Calf Serum. Cells in 35 mm dishes (2.5×10^5 cells/dish) were transiently transfected with use of calcium phosphate precipitation (Ausubel et. al., 1994). Each dish received 375 ng pZHWTx8SVSEAP; 12 ng pCGNNZFHD1-FKBPx3 and 25 ng pCGNNFKBPx3-VP16 or pCGNNFKBPx3-p65. Following transfection, 2 ml fresh media was added and supplemented with FK1012 to the desired concentration. After a 24 hour incubation […] aliquot of media was removed and assayed for SEAP activity as described (Spencer et. al., 1993).

[2] = hGH clearance after bolus administration; format: in vivo; details: i.p. or i.v.
Excerpt: Therefore, the observed hGH secretion in this example appears to be a sustained phenomenon.

[3] = system: ZFHD1-FKBPx3 and FRB-p65 fusion proteins, hGH target gene in implanted cells; assay: Rapamycin-dependent serum hGH in nu/nu mice implanted with transfected HT1080 cells; format: in vivo; details: rapamycin i.v. 10-10,000 μg/kg, serum 17 hours after administration
Procedure: Human cells (2×10^6) transfected with plasmids encoding transcription factors ZFHD1-FKBPx3 and FRB-p65 and a target gene directing the expression of human growth hormone (hGH) were injected into the skeletal muscles of nu/nu mice. Mice were treated with the indicated concentration of rapamycin by tail vein injection. After 17 hours, serum hGH levels were determined by ELISA. Each point represents X±SEM (n=at least 5 per point). Control animals received either engineered cells without drug or drug (10^3 or 10^4 μg/kg) without engineered cells.
2×10^6 cells from the transfected HT1080 culture were administered to nu/nu mice by intramuscular injection. Following cell implantation, rapamycin was administered i.v. over a range of doses (from 10-10,000 μg/kg). Serum samples were collected from the mice 17 hours after rapamycin administration. Control groups consisted of mice that received no cells but 1.0 mg/kg rapamycin (i.v.) as well as mice that received the cells but no rapamycin.
Neither control group produced measurable hGH. The limit of detection of the hGH assay is 0.0125 ng/ml.

[4] = system: ZFHD1-FKBPx3 and FRB-p65 fusion proteins, hGH reporter linked to ZFHD1 binding sites; assay: Rapamycin-dependent hGH expression in transfected HT1080 cell culture; format: cell-based; details: HT1080 cells with three constructs
Procedure: Using the approach described in Example 6, constructs were prepared encoding the ZFHD1-FKBPx3 fusion protein, a second fusion protein containing the FKBP:rapaymcin binding (“FRB”) region of FRAP linked to the p65 activation domain, and a reporter cassette containing a gene encoding human growth hormone linked to multiple ZFHD1 binding sites. The natural product, rapamycin, forms a ternary complex with FKBP12 and FRAP. Similarly, rapamycin is capable of binding to one or more of the FKBP domains and FRAP FRB domains of the fusion proteins.

CO[C@H]1C[C@@H](C)C/C(C)=C/[C@@H](CCOC(=O)NCc2ccc(CNC(=O)OCC[C@@H]3/C=C(\C)C[C@H](C)C[C@H](OC)C4O[C@@](O)(C(=O)C(=O)N5CCCC[C@H]5C(=O)OC(/C(C)=C/[C@@H]5CC[C@@H](O)[C@H](OC)C5)[C@H](C)[C@@H](O)CC3=O)[C@H](C)C[C@H]4OC)cc2)C(=O)C[C@H](O)[C@@H](C)C(/C(C)=C/[C@@H]2CC[C@@H](O)[C@H](OC)C2)OC(=O)[C@@H]2CCCCN2C(=O)C(=O)[C@]2(O)OC1[C@H](OC)C[C@H]2C (some centres unmarked) [FK1012]
FK1012 concentration at peak activation [1]: 100 nM

hGH: human growth hormone, reporter gene product; bolus clearance stated
hGH clearance half-life [2]: less than 2 minutes | time to undetectable hGH levels [2]: ≤ 30 min

rapamycin
expression of hGH (circulating hGH) [3]: Dose-responsive expression of hGH | rapamycin-dependent expression of the hGH gene in cell culture [4]: rapamycin-dependent expression of the hGH gene
